Test: Dissolution test in 1 M chloride salt aqueous solutions
Assay type: physicochemical
Conditions: potassium chloride, lithium chloride and ammonium chloride aqueous solution, room temperature
[1] = 0.01 mmol added to 10 mL each of 1 M sodium chloride

dissolution in aqueous salt solutions [1]	dissolution in aqueous salt solutions (0.05 mmol added to 10 mL each of 1 M sodium chloride)	SMILES
did not dissolve		O=C1c2ccccc2C(=O)c2c1cc(S(=O)(=O)[O-])c(O)c2O.[Na+] [Alizarin Red S, reference compound]
	did not dissolve	O=C(O)c1ccc2nc3cc(O)c(O)cc3nc2c1 [compound represented by formula (1a-1)]
did not dissolve		O=C(O)c1ccc2c(c1)C(=O)c1c(O)ccc(O)c1C2=O [compound represented by formula (2a-1)]

Reference: patent publication US20240243319A1, “AQUEOUS ELECTROLYTE, SALTS USED THEREIN, AND REDOX FLOW BATTERY USING SAID AQUEOUS ELECTROLYTE” (MITSUBISHI CHEMICAL CORPORATION, priority 2021, published 2024)
